In paper PMC11316798, “Signaling by a bacterial phytochrome histidine kinase involves a conformational cascade reorganizing the dimeric photoreceptor” (Nature Communications, 2024):

T1: PsBphP1 (Pseudomonas syringae group genomosp. 3, UniProt Q885D3)
T1 construct: gene bphP
T1 sequence (Q885D3 1-745): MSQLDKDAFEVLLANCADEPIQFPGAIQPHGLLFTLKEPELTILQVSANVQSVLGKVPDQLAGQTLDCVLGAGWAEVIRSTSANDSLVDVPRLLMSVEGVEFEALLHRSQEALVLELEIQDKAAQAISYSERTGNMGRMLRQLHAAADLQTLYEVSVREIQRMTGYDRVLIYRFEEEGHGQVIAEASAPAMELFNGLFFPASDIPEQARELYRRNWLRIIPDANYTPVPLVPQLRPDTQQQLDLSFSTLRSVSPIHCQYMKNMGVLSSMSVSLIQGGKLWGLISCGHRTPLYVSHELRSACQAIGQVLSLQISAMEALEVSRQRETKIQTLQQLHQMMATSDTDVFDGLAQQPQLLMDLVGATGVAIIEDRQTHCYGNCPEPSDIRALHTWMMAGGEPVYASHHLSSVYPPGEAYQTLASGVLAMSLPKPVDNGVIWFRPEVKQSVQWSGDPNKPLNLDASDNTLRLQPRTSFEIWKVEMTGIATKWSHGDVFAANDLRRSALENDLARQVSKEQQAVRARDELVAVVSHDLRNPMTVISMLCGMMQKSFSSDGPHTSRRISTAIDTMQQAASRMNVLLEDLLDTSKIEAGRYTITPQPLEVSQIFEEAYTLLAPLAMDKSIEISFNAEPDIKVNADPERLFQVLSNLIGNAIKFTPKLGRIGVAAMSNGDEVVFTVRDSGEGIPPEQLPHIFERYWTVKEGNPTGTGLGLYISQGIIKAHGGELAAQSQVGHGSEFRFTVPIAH


Assays:
[1] = molecular target: T2, PsAlgB (mixed with PsBphP1) (Pseudomonas syringae group genomosp. 3, UniProt Q88AQ2); details: 1.5 mM ATP, 5 mM MgCl2, pH 7.5, 22 °C, 175 mM KSCN; needs PsBphP1 (Pr or Pfr); authors presume the ATPase is intrinsic to PsAlgB
T2 construct: gene algB
T2 sequence (Q88AQ2 whole entry, one chain of several): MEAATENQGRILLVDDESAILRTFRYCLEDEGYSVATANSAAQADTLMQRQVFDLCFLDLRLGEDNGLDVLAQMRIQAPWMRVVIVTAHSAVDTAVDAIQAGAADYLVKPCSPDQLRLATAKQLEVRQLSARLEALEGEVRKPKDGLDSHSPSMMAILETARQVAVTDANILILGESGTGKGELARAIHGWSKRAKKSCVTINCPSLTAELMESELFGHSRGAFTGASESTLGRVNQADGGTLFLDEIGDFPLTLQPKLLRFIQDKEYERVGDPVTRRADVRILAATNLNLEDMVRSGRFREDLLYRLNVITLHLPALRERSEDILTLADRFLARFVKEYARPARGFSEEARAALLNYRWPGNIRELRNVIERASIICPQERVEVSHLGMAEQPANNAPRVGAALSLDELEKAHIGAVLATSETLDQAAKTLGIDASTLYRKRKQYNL

[2] = molecular target: T1, PsBphP1; details: labelled compound; Pfr under red light; 150 uM ATP, 5 mM MgCl2, pH 7.5, 22 °C; phosphoacceptor His530
[3] = molecular target: the molecule itself; experiment: cryo-EM structure; PsBphP1 as Pr (dark-adapted), 0.5 mg/mL, 175 mM KSCN, 10 mM 2-mercaptoethanol, 10 mM HEPES-NaOH pH 7.5; head-to-head dimer
[4] = molecular target: the molecule itself; experiment: cryo-EM structure; PsBphP1 as Pfr (irradiated 10 min with 630-nm LED), 0.5 mg/mL, 175 mM KSCN, 10 mM 2-mercaptoethanol, 10 mM HEPES-NaOH pH 7.5; dimers (medial, splayed) and tetrameric dimer-of-dimers

Row | Molecule | SEC elution shift of ATP to ADP [1] | autophosphorylation with 32P-ATP, SDS-PAGE and phosphorimaging [2] | stoichiometry N [3] | stoichiometry N [4]
1 | Nc1ncnc2c1ncn2[C@@H]1O[C@H](COP(=O)(O)OP(=O)(O)OP(=O)(O)O)[C@@H](O)[C@H]1O [ATP] | the two proteins together elicited robust ATPase activity for PsAlgB | initial autophosphorylation of PsBphP1 required the predicted internal phosphoacceptor His530 |  | 
2 | Pseudomonas syringae bacteriophytochrome photoreceptor BphP1 (PsBphP1), full length, assembled with biliverdin (natural protein, biliverdin (BV) covalently linked via a thioether linkage to Cys16, PsBphP1, bacteriophytochrome histidine kinase of Pseudomonas syringae, full-length polypeptide, residues 1-745; One molecule for both light states: Pr (dark-adapted) and Pfr (red-light irradiated, ~80% Pfr); the state is named in each assay; Dimer as Pr; dimer-tetramer (dimer-of-dimers) equilibrium as Pfr; also called P. syringae BphP1; P. syringae BphP; not shown: His6, N-terminal, cleaved) GMSQLDKDAFEVLLANCADEPIQFPGAIQPHGLLFTLKEPELTILQVSANVQSVLGKVPDQLAGQTLDCVLGAGWAEVIRSTSANDSLVDVPRLLMSVEGVEFEALLHRSQEALVLELEIQDKAAQAISYSERTGNMGRMLRQLHAAADLQTLYEVSVREIQRMTGYDRVLIYRFEEEGHGQVIAEASAPAMELFNGLFFPASDIPEQARELYRRNWLRIIPDANYTPVPLVPQLRPDTQQQLDLSFSTLRSVSPIHCQYMKNMGVLSSMSVSLIQGGKLWGLISCGHRTPLYVSHELRSACQAIGQVLSLQISAMEALEVSRQRETKIQTLQQLHQMMATSDTDVFDGLAQQPQLLMDLVGATGVAIIEDRQTHCYGNCPEPSDIRALHTWMMAGGEPVYASHHLSSVYPPGEAYQTLASGVLAMSLPKPVDNGVIWFRPEVKQSVQWSGDPNKPLNLDASDNTLRLQPRTSFEIWKVEMTGIATKWSHGDVFAANDLRRSALENDLARQVSKEQQAVRARDELVAVVSHDLRNPMTVISMLCGMMQKSFSSDGPHTSRRISTAIDTMQQAASRMNVLLEDLLDTSKIEAGRYTITPQPLEVSQIFEEAYTLLAPLAMDKSIEISFNAEPDIKVNADPERLFQVLSNLIGNAIKFTPKLGRIGVAAMSNGDEVVFTVRDSGEGIPPEQLPHIFERYWTVKEGNPTGTGLGLYISQGIIKAHGGELAAQSQVGHGSEFRFTVPIAH |  |  | 2 | 4
